Measured values published in ChEMBL document CHEMBL1143281, “New analogues of agmatine with higher affinity to imidazoline receptors” (Bioorg Med Chem Lett, 2009).

What was measured:
[1] = molecular target: T1, Adrenergic receptor alpha-2 (Rattus norvegicus, UniProt P22086+P19328+P22909); experiment: Displacement of [3H]RX821002 from alpha2 adrenoceptor in Sprague-Dawley rat kidney by liquid scintillation counting; type: tissue-based
T1 sequence (P22086 whole entry): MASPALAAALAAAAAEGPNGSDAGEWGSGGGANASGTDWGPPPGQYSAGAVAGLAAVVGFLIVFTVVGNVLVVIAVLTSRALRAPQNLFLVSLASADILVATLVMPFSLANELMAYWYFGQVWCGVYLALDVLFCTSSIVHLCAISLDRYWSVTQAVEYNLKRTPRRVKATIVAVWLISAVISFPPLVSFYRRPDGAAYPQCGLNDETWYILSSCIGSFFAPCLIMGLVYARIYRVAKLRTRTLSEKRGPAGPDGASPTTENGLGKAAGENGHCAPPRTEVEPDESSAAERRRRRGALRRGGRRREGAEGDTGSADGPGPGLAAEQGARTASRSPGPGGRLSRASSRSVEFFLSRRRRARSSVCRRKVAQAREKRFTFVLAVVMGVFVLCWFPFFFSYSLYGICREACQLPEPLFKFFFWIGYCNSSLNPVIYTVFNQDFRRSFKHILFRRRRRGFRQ
T1 sequence (P19328 whole entry): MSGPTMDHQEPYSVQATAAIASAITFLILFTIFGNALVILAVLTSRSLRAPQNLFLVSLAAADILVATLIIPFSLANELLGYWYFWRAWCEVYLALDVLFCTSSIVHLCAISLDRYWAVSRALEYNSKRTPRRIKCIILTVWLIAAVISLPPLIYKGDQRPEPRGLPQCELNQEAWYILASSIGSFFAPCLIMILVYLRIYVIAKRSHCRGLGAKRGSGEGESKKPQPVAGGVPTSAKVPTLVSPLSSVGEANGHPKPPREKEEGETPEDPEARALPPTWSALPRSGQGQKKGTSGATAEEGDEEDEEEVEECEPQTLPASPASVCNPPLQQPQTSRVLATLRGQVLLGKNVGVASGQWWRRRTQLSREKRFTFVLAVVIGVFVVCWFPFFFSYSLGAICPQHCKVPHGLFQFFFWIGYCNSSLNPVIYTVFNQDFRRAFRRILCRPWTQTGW
T1 sequence (P22909 whole entry): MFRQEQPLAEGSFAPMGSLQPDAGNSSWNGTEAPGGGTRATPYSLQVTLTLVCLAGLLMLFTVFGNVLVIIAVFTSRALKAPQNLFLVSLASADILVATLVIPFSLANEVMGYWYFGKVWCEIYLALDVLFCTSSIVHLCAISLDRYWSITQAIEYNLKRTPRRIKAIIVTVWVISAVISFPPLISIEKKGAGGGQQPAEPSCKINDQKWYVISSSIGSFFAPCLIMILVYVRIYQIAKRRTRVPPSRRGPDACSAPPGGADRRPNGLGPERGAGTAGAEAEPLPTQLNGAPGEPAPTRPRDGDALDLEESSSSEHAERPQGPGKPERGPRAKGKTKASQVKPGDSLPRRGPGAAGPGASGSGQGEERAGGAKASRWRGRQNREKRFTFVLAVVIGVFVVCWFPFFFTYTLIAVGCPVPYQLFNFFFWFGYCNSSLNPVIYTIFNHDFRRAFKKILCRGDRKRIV

[2] = Displacement of [3H]2BFI from imidazoline I2 receptor in Sprague-Dawley rat brain by liquid scintillation counting
[3] = molecular target: T2, Nischarin (Rattus norvegicus, UniProt Q4G017); experiment: Displacement of [3H]clonidine from imidazoline I1 receptor in Sprague-Dawley rat kidney by liquid scintillation counting
[4] = molecular target: T2, Nischarin; experiment: Displacement of [3H]clonidine from imidazoline I1 receptor in Wistar rat kidney by liquid scintillation counting
[5] = Displacement of [3H]2BFI from imidazoline I2 receptor in Wistar rat brain by liquid scintillation counting
[6] = molecular target: T1, Adrenergic receptor alpha-2; experiment: Displacement of [3H]RX821002 from alpha2 adrenoceptor in Wistar rat kidney by liquid scintillation counting; type: tissue-based

T2 sequence (Q4G017 whole entry): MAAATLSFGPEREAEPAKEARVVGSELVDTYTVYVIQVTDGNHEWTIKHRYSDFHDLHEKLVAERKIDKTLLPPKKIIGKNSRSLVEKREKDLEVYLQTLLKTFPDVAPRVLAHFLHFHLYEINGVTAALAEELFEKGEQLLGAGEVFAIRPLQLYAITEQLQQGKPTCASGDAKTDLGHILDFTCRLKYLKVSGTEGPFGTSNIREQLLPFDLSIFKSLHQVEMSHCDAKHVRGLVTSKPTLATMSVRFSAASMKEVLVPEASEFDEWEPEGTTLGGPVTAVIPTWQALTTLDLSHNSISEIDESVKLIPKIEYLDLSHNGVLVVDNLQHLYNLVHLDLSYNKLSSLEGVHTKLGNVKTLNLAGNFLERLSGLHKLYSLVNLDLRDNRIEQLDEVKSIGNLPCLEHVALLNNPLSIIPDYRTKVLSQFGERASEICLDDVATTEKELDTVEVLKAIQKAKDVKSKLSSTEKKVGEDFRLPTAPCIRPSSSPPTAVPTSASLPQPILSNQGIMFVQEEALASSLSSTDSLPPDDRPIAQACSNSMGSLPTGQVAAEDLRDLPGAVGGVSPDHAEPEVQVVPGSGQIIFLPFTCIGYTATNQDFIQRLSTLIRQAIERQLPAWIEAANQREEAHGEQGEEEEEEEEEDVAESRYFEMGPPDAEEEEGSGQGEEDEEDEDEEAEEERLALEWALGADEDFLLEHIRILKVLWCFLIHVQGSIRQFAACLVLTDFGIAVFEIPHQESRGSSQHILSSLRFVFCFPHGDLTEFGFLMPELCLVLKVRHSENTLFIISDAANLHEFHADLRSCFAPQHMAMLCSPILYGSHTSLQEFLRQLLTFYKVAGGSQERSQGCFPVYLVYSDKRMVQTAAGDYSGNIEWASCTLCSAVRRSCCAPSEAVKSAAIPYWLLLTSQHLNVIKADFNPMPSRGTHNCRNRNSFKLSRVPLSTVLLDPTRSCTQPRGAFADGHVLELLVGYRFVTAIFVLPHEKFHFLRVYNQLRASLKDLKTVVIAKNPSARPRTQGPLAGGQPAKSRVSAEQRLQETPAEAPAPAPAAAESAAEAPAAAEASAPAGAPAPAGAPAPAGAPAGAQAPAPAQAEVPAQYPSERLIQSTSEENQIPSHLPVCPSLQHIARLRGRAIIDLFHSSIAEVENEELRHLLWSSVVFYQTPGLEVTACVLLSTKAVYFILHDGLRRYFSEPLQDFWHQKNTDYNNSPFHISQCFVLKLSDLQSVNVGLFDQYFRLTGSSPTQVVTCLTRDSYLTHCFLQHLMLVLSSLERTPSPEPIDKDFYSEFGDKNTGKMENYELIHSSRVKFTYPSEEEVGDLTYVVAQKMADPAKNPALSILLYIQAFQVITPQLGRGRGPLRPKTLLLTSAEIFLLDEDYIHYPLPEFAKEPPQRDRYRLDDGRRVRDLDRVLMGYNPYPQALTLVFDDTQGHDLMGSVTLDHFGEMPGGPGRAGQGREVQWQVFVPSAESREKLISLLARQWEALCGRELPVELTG

| Ki [1] | Ki [2] | IC50 [3] | SMILES | IC50 [4] | Ki [5] | Ki [6] |
| --- | --- | --- | --- | --- | --- | --- |
| > 100 µM | > 100 µM | 64 µM | CN(C)CC[C@H]1CN=CN1.Cl.Cl | – | – | – |
| 18.82 µM | > 100 µM | > 100 µM | Br.NCC[C@@H]1CN=C(N)N1 | – | – | – |
| 76.44 µM | 1.84 µM | 115 µM | Br.CC1=NC[C@H](CCN)N1 | – | – | – |
| > 100 µM | > 100 µM | 383 µM | Br.CC(=O)NCC[C@@H]1CN=C(N)N1 | – | – | – |
| > 100 µM | > 100 µM | 213 µM | CC(=O)NCC[C@H]1CN=CN1.CC(=O)O | – | – | – |
| 11.77 µM | 55 µM | 0.477 µM | Br.NCC[C@H]1CN=C(N)N1 | – | – | – |
| > 52.86 µM | > 100 µM | 44.8 µM | Br.CN(C)CC[C@H]1CN=C(N)N1 | – | – | – |
| > 100 µM | > 100 µM | 235 µM | Br.CC(=O)NCC[C@H]1CN=C(N)N1 | – | – | – |
| – | – | – | NCCCCN=C(N)N [AGMATINE] | 36.5 µM | 417 µM | 31.7 µM |
| – | 0.364 µM | 0.366 µM | Clc1cccc(Cl)c1NC1=NCCN1 [CLONIDINE] | – | – | – |

| SMILES | Ki [1] | Ki [2] | IC50 [3] | IC50 [4] | Ki [5] | Ki [6] |
| --- | --- | --- | --- | --- | --- | --- |
| Br.NCC[C@@H]1CN=CN1 | 62.07 µM | > 100 µM | 16.5 µM | – | – | – |
| Br.NCC[C@H]1CN=CN1 | > 100 µM | 65.8 µM | > 100 µM | – | – | – |
